The text below walks through data of patent US20240158391A1, “DERIVATIVES OF 4-(IMIDAZO[1,2-A]PYRIDIN-3-YL)-N-(PYRIDIN-3-YL) PYRIMIDIN-2- AMINE FOR TREATING PROLIFERATIVE DISEASES AND CONDITIONS” (AUCENTRA THERAPEUTICS PTY LTD, priority 2019, published 2024).

For test [1], the target named is CDK1/CyclinB (Homo sapiens, UniProt P06493). Put plainly: ADP Glo kinase assay, CDK1/CyclinB. The test is classed as biochemical. Conditions: for remaining activity at 1 µM: compound at 1 μM, read-out: Residual enzymatic activity (%) at 1 μM, CDK1 B; for Ki: Km ATP, read-out: Enzymatic inhibition, Ki, CDK1 B. The protocol:
(§1) Test compounds are used in 1:3 serial dilutions for 10 concentrations (from 10-0.0005 μM) in 0.5% DMSO. […] The kinase reactions are run for optimised time period at room temperature and then the reaction is stopped by adding 5 μL of ADP Glo reagent.

For test [2], the target named is CDK2/CyclinA2 (Homo sapiens, UniProt P24941). Nature of the test: ADP Glo kinase assay, CDK2/CyclinA2. It counts as biochemical. As to conditions: for Ki: Km ATP, read-out: Enzymatic inhibition, Ki, CDK2 A; for remaining activity at 1 µM: compound at 1 μM, read-out: Residual enzymatic activity (%) at 1 μM, CDK2 A. The procedure: as §1
A general note: ADP-Glo turns the ADP formed in a reaction into a luminescent signal.

Test [3] concerns the target CDK4/CyclinD1 (Homo sapiens, UniProt P11802). Put plainly: ADP Glo kinase assay, CDK4/CyclinD1. The test is classed as biochemical. As to conditions: for remaining activity at 1 µM: compound at 1 μM, read-out: Residual enzymatic activity (%) at 1 μM, CDK4 D1; for Ki: Km ATP, read-out: Enzymatic inhibition, Ki, CDK4 D1. The procedure:
as §1

For test [4], the target named is CDK6/CyclinD3 (Homo sapiens, UniProt Q00534). Nature of the test: ADP Glo kinase assay, CDK6/CyclinD3. It counts as biochemical. Conditions: for remaining activity at 1 µM: compound at 1 μM, read-out: Residual enzymatic activity (%) at 1 μM, CDK6 D3; for Ki: Km ATP, read-out: Enzymatic inhibition, Ki, CDK6 D3. The protocol:
as §1

The target of test [5] is CDK7/CyclinH/Mat1 (Homo sapiens, UniProt P50613). Put plainly: ADP Glo kinase assay, CDK7/CyclinH/Mat1. The test is classed as biochemical. As to conditions: for Ki: Km ATP, read-out: Enzymatic inhibition, Ki, CDK7 H; for remaining activity at 1 µM: compound at 1 μM, read-out: Residual enzymatic activity (%) at 1 μM, CDK7 H. The protocol: as §1
Chain of CDK7/CyclinH/Mat1 (P50613 whole entry, species assumed): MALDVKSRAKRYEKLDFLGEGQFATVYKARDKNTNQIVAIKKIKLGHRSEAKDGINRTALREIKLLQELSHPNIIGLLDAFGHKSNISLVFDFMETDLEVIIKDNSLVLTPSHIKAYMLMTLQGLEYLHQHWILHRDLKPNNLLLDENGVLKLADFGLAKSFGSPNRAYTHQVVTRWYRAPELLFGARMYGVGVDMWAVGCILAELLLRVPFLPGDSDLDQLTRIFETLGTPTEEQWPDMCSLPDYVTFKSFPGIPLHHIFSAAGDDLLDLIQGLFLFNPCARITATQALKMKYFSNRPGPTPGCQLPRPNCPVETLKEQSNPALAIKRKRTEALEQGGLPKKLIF
Chain of CDK7/CyclinH/Mat1 (P51946 whole entry partner, species assumed): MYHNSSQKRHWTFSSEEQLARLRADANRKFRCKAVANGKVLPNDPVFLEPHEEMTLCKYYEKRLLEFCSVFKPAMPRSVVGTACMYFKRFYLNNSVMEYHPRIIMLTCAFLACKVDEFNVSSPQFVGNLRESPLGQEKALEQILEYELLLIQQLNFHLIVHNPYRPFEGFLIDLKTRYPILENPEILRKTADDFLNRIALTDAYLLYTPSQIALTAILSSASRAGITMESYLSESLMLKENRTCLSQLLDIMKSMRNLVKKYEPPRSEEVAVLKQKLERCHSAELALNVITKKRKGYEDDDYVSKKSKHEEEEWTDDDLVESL
Chain of CDK7/CyclinH/Mat1 (P51948 whole entry partner, species assumed): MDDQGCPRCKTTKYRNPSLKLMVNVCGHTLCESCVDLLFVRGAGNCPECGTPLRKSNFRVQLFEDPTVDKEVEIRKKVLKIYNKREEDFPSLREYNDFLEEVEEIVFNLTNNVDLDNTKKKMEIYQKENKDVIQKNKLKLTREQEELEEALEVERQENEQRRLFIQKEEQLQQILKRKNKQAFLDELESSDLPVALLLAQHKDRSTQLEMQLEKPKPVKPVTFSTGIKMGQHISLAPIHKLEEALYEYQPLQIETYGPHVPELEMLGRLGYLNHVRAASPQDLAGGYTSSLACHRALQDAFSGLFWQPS
For test [6], the target named is CDK9/CyclinT1 (Homo sapiens, UniProt P50750). Put plainly: ADP Glo kinase assay, CDK9/CyclinT1. It counts as biochemical. As to conditions: for Ki: CDK9/CyclinT1, Km ATP, read-out: Enzymatic inhibition, Ki, CDK9 T1. The procedure: as §1
Chain of CDK9/CyclinT1 (P50750 whole entry, species assumed): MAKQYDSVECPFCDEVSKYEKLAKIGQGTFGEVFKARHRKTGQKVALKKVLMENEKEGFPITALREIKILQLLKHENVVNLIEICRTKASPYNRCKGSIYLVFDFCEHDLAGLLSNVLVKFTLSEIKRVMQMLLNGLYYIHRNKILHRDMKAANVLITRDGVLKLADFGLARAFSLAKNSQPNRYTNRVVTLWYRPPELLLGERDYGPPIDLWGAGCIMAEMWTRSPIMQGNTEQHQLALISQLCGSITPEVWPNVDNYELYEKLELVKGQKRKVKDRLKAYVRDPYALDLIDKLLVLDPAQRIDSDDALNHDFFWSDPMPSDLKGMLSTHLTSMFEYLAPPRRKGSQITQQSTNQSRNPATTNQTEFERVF
Chain of CDK9/CyclinT1 (O60563 whole entry partner, species assumed): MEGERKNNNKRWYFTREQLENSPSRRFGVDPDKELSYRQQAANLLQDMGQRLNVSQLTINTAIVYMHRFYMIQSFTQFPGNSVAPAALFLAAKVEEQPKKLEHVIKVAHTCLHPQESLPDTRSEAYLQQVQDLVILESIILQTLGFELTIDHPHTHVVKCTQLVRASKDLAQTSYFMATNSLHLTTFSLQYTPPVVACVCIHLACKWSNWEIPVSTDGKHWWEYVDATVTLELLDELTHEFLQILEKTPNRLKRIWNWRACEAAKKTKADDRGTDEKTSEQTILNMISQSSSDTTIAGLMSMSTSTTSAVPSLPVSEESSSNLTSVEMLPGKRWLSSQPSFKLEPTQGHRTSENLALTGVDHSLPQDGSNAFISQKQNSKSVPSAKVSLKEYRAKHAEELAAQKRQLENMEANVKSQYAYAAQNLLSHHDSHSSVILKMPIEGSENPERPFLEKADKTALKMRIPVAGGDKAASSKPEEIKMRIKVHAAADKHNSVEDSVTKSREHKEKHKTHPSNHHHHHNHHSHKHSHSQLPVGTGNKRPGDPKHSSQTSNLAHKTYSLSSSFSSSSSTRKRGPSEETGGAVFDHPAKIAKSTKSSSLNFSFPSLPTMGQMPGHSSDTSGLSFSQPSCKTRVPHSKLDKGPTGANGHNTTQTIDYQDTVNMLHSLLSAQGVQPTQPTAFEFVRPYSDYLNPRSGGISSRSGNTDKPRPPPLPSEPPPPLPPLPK
Test [7] deals with T1, FLT3-ITD (Homo sapiens, UniProt P36888).
T1 sequence (P36888 1-993): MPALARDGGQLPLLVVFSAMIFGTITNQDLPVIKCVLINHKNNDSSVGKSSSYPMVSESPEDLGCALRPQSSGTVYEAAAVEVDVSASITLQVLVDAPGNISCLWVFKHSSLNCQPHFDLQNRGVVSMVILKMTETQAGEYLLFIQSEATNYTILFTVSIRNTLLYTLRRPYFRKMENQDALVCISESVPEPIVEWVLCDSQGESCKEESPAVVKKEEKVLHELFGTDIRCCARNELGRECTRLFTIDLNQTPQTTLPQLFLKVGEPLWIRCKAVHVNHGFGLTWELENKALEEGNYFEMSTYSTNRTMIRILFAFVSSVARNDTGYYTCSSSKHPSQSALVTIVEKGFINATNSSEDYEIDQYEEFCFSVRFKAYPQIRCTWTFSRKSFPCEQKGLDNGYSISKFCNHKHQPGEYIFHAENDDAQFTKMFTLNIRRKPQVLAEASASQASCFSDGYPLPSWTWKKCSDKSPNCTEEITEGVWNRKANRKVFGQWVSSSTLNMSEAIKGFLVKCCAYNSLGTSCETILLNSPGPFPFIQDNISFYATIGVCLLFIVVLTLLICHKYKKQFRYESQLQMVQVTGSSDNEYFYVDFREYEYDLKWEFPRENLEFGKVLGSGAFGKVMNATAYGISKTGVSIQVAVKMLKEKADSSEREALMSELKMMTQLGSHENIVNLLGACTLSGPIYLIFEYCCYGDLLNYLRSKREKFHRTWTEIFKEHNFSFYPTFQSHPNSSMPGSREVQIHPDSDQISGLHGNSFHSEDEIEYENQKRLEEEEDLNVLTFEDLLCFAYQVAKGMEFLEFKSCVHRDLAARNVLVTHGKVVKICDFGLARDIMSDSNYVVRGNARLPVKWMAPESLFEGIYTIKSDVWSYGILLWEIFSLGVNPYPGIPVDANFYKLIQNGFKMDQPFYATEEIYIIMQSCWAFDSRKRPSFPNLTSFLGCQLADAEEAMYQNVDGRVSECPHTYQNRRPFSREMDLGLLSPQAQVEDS
Put plainly: ADP Glo kinase assay, FLT3-ITD. The test is classed as biochemical. Conditions: Km ATP 100 μM, read-out: Enzymatic inhibition, Ki, FLT3-ITD. The protocol:
as §1

Test [8] relates to MV-4-11. Put plainly: Proliferation assay (resazurin, leukemia cell lines), MV-4-11. The test is classed as cell-based. Conditions: Homo sapiens, MV4-11, read-out: 72 h Growth inhibition GI50, MV-4-11 cells. The text has this: The following compounds were used as comparators.
A general note: The colour change of resazurin is a common sign of viable cells or microbes.

Where only a bound is given, the exact number is not on record here.

Chain of CDK4/CyclinD1 (P11802 whole entry, species assumed): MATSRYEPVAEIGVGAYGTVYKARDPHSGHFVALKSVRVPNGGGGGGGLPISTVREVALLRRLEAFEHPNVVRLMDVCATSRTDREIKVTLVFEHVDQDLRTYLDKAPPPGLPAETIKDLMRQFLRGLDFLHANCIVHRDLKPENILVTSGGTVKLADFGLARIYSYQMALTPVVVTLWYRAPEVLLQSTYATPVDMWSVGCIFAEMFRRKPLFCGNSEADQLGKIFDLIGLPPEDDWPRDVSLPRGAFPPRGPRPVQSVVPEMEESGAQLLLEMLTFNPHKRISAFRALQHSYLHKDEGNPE
Chain of CDK4/CyclinD1 (P24385 whole entry partner, species assumed): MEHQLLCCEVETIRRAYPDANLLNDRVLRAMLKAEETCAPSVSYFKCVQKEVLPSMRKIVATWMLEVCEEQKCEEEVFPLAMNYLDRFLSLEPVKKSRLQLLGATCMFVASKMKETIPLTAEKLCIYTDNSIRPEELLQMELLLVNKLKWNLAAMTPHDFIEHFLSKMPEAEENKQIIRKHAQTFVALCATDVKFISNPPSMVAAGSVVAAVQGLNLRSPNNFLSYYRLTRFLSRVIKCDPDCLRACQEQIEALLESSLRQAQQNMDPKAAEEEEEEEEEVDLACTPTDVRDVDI
Chain of CDK1/CyclinB (P06493 whole entry, species assumed): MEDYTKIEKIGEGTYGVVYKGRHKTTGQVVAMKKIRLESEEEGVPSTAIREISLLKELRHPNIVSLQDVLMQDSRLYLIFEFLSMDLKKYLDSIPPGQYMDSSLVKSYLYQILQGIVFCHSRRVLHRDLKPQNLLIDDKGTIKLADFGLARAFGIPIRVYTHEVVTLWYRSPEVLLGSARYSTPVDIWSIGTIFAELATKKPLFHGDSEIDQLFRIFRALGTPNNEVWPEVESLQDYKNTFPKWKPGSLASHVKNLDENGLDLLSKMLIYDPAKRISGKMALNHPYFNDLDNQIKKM
Chain of CDK1/CyclinB (P14635 whole entry partner, species assumed): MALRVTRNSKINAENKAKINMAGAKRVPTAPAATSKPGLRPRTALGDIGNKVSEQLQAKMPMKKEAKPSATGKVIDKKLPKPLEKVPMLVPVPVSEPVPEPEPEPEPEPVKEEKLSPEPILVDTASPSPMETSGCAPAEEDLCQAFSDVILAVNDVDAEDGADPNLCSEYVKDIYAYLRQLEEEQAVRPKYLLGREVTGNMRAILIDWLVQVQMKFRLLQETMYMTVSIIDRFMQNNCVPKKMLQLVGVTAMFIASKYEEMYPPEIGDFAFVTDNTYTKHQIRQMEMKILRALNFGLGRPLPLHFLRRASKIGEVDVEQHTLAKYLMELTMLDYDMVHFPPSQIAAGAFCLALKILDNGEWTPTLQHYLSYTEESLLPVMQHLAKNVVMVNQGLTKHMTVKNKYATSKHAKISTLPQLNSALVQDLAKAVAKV
Chain of CDK6/CyclinD3 (Q00534 whole entry, species assumed): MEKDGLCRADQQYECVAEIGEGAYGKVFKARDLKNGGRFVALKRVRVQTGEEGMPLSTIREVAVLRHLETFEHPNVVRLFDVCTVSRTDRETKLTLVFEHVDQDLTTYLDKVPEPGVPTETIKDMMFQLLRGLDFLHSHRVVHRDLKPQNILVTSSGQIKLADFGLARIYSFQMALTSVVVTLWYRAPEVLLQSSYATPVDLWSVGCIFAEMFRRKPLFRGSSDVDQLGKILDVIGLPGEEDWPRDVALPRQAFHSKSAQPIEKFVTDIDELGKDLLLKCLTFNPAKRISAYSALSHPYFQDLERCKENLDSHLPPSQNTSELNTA
Chain of CDK6/CyclinD3 (P30281 whole entry partner, species assumed): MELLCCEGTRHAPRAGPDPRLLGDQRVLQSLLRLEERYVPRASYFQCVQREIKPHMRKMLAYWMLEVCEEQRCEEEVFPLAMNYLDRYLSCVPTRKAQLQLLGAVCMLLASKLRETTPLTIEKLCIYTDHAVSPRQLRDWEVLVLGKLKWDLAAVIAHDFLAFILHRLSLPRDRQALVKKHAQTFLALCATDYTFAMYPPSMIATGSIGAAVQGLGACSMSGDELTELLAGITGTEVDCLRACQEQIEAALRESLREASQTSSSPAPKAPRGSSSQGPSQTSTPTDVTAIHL

As a reminder, the Ki is a measure of affinity in units of concentration, obtained from inhibition or displacement. As a reminder, the GI50 is the concentration giving 50% growth inhibition. `CN(C)C1CCN(Cc2ccc(Nc3nccc(-c4cnc5ccc(Br)cn45)n3)cn2)CC1` [Compound 81, 4-(6-Bromoimidazo[1,2-a]pyridin-3-yl)-N-(6-((4-(dimethylamino)piperidin-1-yl)methyl)pyridin-3-yl)pyrimidin-2-amine]: the remaining activity at 1 µM was 84% in test [1], 47% in test [3] and 22% in test [4]. For the same molecule, the Ki in test [2] is 0.041 µM; in test [5], 0.205 µM; in test [6] it was 0.143 µM; in test [7] it was 0.07 µM. Moreover, the GI50 in test [8] is 0.098 µM.
For `CN1CCN(c2ccc(Nc3nccc(-c4cnc5ccc(-c6cccnc6)cn45)n3)cn2)CC1` [Compound 7, N-(6-(4-Methylpiperazin-1-yl)pyridin-3-yl)-4-(6-(pyridin-3-yl)imidazo[1,2-a]pyridin-3-yl)pyrimidin-2-amine], the Ki was 1.1 µM in test [1]; 0.825 µM in test [2]; greater than 0.5 µM in test [3]; 2.16 µM in test [4]; 2.73 µM in test [5]; 0.0004 µM in test [6]. Also, in test [7], the Ki came to 0.004 µM. Moreover, the “inhibition of CDK9 (in words)” value in test [6] (compared with comparator compounds A, B and C (N-(pyridin-2-yl)pyrimidin-2-amine moiety)) was “dramatically and surprisingly increased the potency of inhibition of CDK9”. Also, in test [8], the GI50 is 0.029 µM.
For the molecule `CN1CCN(c2ccc(Nc3ncc(F)c(-c4cnc5ccc(-c6ccccc6)cn45)n3)cn2)CC1` [Compound 28, 5-Fluoro-N-(6-(4-methylpiperazin-1-yl)pyridin-3-yl)-4-(6-phenylimidazo[1,2-a]pyridin-3-yl)pyrimidin-2-amine], the remaining activity at 1 µM in test [1] came to 61%; in test [3] it was 76%; in test [4] it was 45%. Further, the Ki in test [2] turned out to be 1.12 µM; in test [5], 0.314 µM; in test [6], 0.086 µM; in test [7], 0.065 µM. Also, the GI50 in test [8] came to 0.233 µM.
Regarding `CS(=O)(=O)N1CCN(c2ccc(Nc3nccc(-c4cnc5ccc(-c6cncnc6)cn45)n3)cn2)CC1` [Compound 20, N-(6-(4-(Methylsulfonyl)piperazin-1-yl)pyridin-3-yl)-4-(6-(pyrimidin-5-yl)imidazo[1,2-a]pyridin-3-yl)pyrimidin-2-amine], the Ki is greater than 5 µM in test [1]; greater than 5 µM in test [4]; 0.89 µM in test [5]; 0.056 µM in test [6]; 1.45 µM in test [7]. Besides, the remaining activity at 1 µM in test [2] amounted to 41%; in test [3], 86%. Moreover, the GI50 in test [8] is 0.094 µM.
With `CS(=O)(=O)N1CCN(c2ccc(Nc3nccc(-c4cnc5ccc(-c6ccccc6)cn45)n3)cn2)CC1` [Compound 17, N-(6-(4-(Methylsulfonyl)piperazin-1-yl)pyridin-3-yl)-4-(6-phenylimidazo[1,2-a]pyridin-3-yl)pyrimidin-2-amine], the Ki in test [1] was greater than 5 µM; in test [2] it was greater than 1 µM; in test [3], greater than 0.5 µM; in test [4], greater than 5 µM; in test [5] it was greater than 1 µM; in test [6], 0.028 µM. Further, in test [7], the Ki came out at 0.016 µM. Besides, the GI50 in test [8] was found to be 0.006 µM.
As to `Brc1ccc2ncc(-c3ccnc(Nc4ccc(N5CCNCC5)nc4)n3)n2c1` [Compound 42, 4-(6-Bromoimidazo[1,2-a]pyridin-3-yl)-N-(6-(piperazin-1-yl)pyridin-3-yl)pyrimidin-2-amine], the Ki in test [1] is 0.078 µM; in test [2], 0.031 µM; in test [4], greater than 0.5 µM; in test [6] it was 0.029 µM; in test [7] it was 0.009 µM. The figures for the remaining activity at 1 µM in test [3] and in test [5] were 24% and 27%, respectively. Besides, in test [8], the GI50 stood at 0.022 µM.
Consider `CN1CCN(c2ccc(Nc3nccc(-c4cnc5ccccn45)n3)cn2)CC1` [Compound 1, 4-(Imidazo[1,2-a]pyridin-3-yl)-N-(6-(4-methylpiperazin-1-yl)pyridin-3-yl)pyrimidin-2-amine], for which the Ki in test [1] was 0.141 µM; in test [2] it was 0.059 µM; in test [3] it was 0.008 µM; in test [4] it was 0.043 µM; in test [5] it was 1.09 µM; in test [6], 0.002 µM. In test [7], the inhibitory constant (Ki) stood at 0.002 µM. For the same molecule, the GI50 in test [8] worked out at 0.001 µM.
Take `CC(=O)N1CCN(c2ccc(Nc3nccc(-c4cnc5ccc(-c6ccccc6)cn45)n3)cn2)CC1` [Compound 45, 1-(4-(5-((4-(6-Phenylimidazo[1,2-a]pyridin-3-yl)pyrimidin-2-yl)amino)pyridin-2-yl)piperazin-1-yl)ethan-1-one]: the remaining activity at 1 µM in test [1] was found to be 60%; in test [2], 63%; in test [3] it was 91%; in test [4], 60%; in test [5] it was 79%. The Ki in test [6] came out at 0.054 µM; in test [7], 0.444 µM. Also, the GI50 in test [8] was determined as 0.012 µM.
For the molecule `COc1ccc(-c2ccc3ncc(-c4ccnc(Nc5ccc(N6CCN(C)CC6)nc5)n4)n3c2)cn1` [Compound 43, 4-(6-(6-Methoxypyridin-3-yl)imidazo[1,2-a]pyridin-3-yl)-N-(6-(4-methylpiperazin-1-yl)pyridin-3-yl)pyrimidin-2-amine], the remaining activity at 1 µM in test [1] is 67%; in test [2], 46%; in test [3] it was 68%; in test [4], 46%; in test [5] it was 41%. In addition, the Ki was determined as 0.066 µM in test [6] and 0.024 µM in test [7]. In addition, the GI50 in test [8] turned out to be 0.04 µM.
On to `CN1CCN(c2ccc(Nc3nccc(-c4cnc5ccc(-c6cccnc6)cn45)n3)nc2)CC1` [Comparator compound C, N-(5-(4-methylpiperazin-1-yl)pyridin-2-yl)-4-(6-(pyridin-3-yl)imidazo[1,2-a]pyridin-3-yl)pyrimidin-2-amine, reference compound], for which the remaining activity at 1 µM in test [1] is 67%; in test [2], 94%; in test [3] it was 76%; in test [4] it was 87%; in test [5], 75%. Further, the inhibition constant (Ki) in test [6] turned out to be 0.14 µM.
For `CN1CCN(c2ccc(Nc3nccc(-c4cnc5ccc(-c6cnn(C)c6)cn45)n3)nc2)CC1` [Comparator compound B, 4-(6-(1-methyl-1H-pyrazol-4-yl)imidazo[1,2-a]pyridin-3-yl)-N-(5-(4-methylpiperazin-1-yl)pyridin-2-yl)pyrimidin-2-amine, reference compound], the remaining activity at 1 µM in test [1] was determined as 98%; in test [2], 99%; in test [3], 76%; in test [4], 87%; in test [5], 70%. In addition, the Ki in test [6] was greater than 0.5 µM. For the same molecule, the GI50 in test [8] was found to be 0.007 µM.
